This series can be described thus: gradient 5% acetonitrile 3 min, to 50% in 2 min, to 85% in 15 min, held 3 min, 100 µL/min. Conditions: column: Zorbax Extend-C18 2.1 x 50 mm; eluents: water / acetonitrile, 0.1% formic acid. A digest of the protocol: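 Retention times of pure standards were taken from adduct peaks that were selected by computer and manually inspected. Over 3 months, mixtures of ~100 molecules were run by HPLC–quadrupole time-of-flight mass spectrometry in positive and negative ionization mode. The Zorbax Extend-C18 column (2.1 × 50 mm, 1.8 μm) ran at 100 μL/min in water and acetonitrile, each containing 0.1% formic acid, with 40 μL dead volume and 900 μL dwell volume.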
The compound `CN(C)CCCNC(=O)c1cc(-c2ccc(Cl)cc2)cn1C` gave an RP-LC retention time of 671 s. The compound `COC(=O)N1CCc2ccc(Br)cc2C1C(=O)Nc1ccon1` (stereo not given) displayed an RP-LC retention time of 785 s. The compound `O=C(c1cccc(Cl)c1)N1CCN(c2cc(-c3ccccc3)[nH]n2)CC1` returned an RP-LC retention time of 763 s. The same measure for `CCCCn1c(=O)c2ccccc2n(Cc2nc(-c3ccc(OC(C)C)cc3)no2)c1=O`: 1290 s; for `Clc1ccc(-c2nc(-c3ccc4c(c3)ncn4CCN3CCOCC3)no2)cc1`: 683 s; for `CC12C(=O)N(c3nccs3)C(=O)C1(C)C1CCC2O1` (stereo not given): 741 s. The same measure for `O=C(NC1CC1)c1nnn(-c2ccccc2)c1-c1cccnc1`: 691 s; for `COc1ccc(Cl)cc1S(=O)(=O)N1CCc2nn(CC3CC3)c(=O)n2CC1`: 800 s. The same measure for `Cc1cccc2c(C(=O)NC(C)C)cc(N(C)C)nc12`: 614 s.

As to `COc1ccc2[nH]c3c(c2c1)CCNC31CCN(C(=O)C2CCN2C2CCCCC2)CC1` (stereo not given), the RP-LC retention time amounted to 576 s. The same measure for `COCCNC(=O)NCCn1c(-c2ccc(C)cc2)nc2cccnc21`: 588 s. The compound `O=C(CN1C(=O)C(C(=O)N2CCCCC2)Sc2ccccc21)NCCC1=CCCCC1` (stereo not given) registered an RP-LC retention time of 1120 s. In the case of `CN1C(=O)c2cccnc2Sc2cc(NC(=O)c3ccccc3F)ccc21`, the RP-LC retention time came to 758 s.

The compound `O=C(c1nnn2c1COC(c1ccc(Cl)cc1)C2)N1CCN(C(=O)C2(c3ccccc3)CC2)CC1` (stereo not given) came in with an RP-LC retention time of 996 s.

Consider `COc1ccc(-c2nc(-c3ccc4oc(C)nc4c3)no2)c(C)c1`, for which the RP-LC retention time was 1170 s. Then `Cc1ccc(NC(=O)c2ncn3c2C(=O)N(C2CC2)C(C)(C(=O)NC2CCCC2)C3)c(Cl)c1` (stereo not given), with 864 s. Then `N#Cc1ccc(NC(=O)Cc2csc3nc(-c4ccccc4)cn23)cc1`, with 763 s. With `COc1ccc(C2Cn3nnc(-c4nc(-c5ccc(OC(F)(F)F)cc5)no4)c3CO2)cc1` (stereo not given), the RP-LC retention time was determined as 1240 s. The same measure for `Cc1ccc(Cl)cc1-n1ncc2c(=O)n(Cc3nc(-c4cccc(F)c4)no3)cnc21`: 1210 s; for `Cc1ccc(-n2ccc(=O)c(-c3nc(-c4ccc(OC(C)C)cc4)no3)n2)cc1`: 1060 s.

Compound `OC(c1cc(C(F)(F)F)nc2c(C(F)(F)F)cccc12)C1CCCCN1` (stereo not given) yielded an RP-LC retention time of 754 s. Then `O=C(NCCc1csc(-c2ccccc2)n1)C1CCN(S(=O)(=O)c2ccccc2)CC1`, with 881 s; and `COc1cccc(CNS(=O)(=O)c2ccc3c(c2)C(=O)N(C)c2ncccc2O3)c1`, with 933 s. Then `Cc1cc(-c2nnc(C3CC3)o2)c(C)n1CC(=O)Nc1ccc(F)cc1`, with 792 s. Then `Cc1ccc2c(Nc3cccc(C#N)c3)c(C(=O)N3CCCCC3)cnc2n1`, with 598 s. For the compound `Cn1ncc2c3ccccc3n(CCCC(=O)NCc3cccs3)c2c1=O`, the RP-LC retention time worked out at 817 s. `Cc1[nH]c(C(=O)N2CCC(CC(=O)NC3CCCC3)CC2)c(C)c1C(=O)OC(C)C` registered an RP-LC retention time of 778 s. As to `CCOC(=O)C1CCN(C(=O)C2(c3ccc(NS(C)(=O)=O)cc3)CCCCC2)CC1`, the RP-LC retention time amounted to 894 s. On to `O=C(NCc1csc(C2CCN(C(=O)c3cc(F)ccc3Cl)CC2)n1)C1CCC1`, for which the RP-LC retention time worked out at 713 s. Consider `Cc1ccccc1N1C(=O)CC(N2CCC(C(N)=O)CC2)C1=O` (stereo not given), for which the RP-LC retention time was 580 s. Then `Cc1ccccc1Cn1c(CN2CCC(C(=O)NCCC(C)C)CC2)cc2ccccc21`, with 822 s. Compound `COc1cccc(NC(=O)N2CCC(CC(=O)N3CCCCC3)CC2)c1` yielded an RP-LC retention time of 718 s. The same measure for `O=C(NCCC1=CCCCC1)c1csc(Nc2ncccn2)n1`: 797 s; for `COc1ccc(-c2nnc(N3CCC(C(=O)NC4CCCCC4)CC3)o2)cc1`: 811 s. The compound `Cc1ccc(C(=O)Nc2ccc3c(c2)Sc2ncccc2C(=O)N3C(C)C)c(C)c1` displayed an RP-LC retention time of 962 s.

Consider `O=C(Cc1csc(Nc2ncccn2)n1)N1CCN(c2cccc(Cl)c2Cl)CC1`, for which the RP-LC retention time came out at 838 s. As to `Cc1sc(NC(=O)CSc2nnc3c4ccccc4n(C)c3n2)nc1-c1ccccc1`, the RP-LC retention time stood at 1030 s. The same measure for `COc1cccc(Nc2nc(-c3ccc(I)cc3)cs2)c1`: 1270 s; for `CCN1CCN(C(=O)c2cc(-c3ccc(C)cc3)cn2CC)CC1`: 678 s; for `COCC1CN(C2CCC2)CC12CCN(C(=O)c1cccs1)CC2` (stereo not given): 602 s. Regarding `CNC(=O)c1cc(N(C)C)nc2c(Cl)cccc12`, the RP-LC retention time is 666 s.

For the compound `COc1ccc(S(=O)(=O)N2CCCC(C(=O)NC(C)(C)C)C2)cc1OC` (stereo not given), the RP-LC retention time was 707 s. Turning to `CC(C)(C)c1cc(C(=O)NC2CCCC2)nc2ccnn12`, the RP-LC retention time is 1150 s. Then `Cn1nc(C(=O)N2CCCC(C(=O)Nc3ccccc3)C2)c2c1CCN(C(=O)CCc1ccccc1)C2` (stereo not given), with 800 s; and `COc1cccc(-c2noc(N3CCCC3)n2)c1`, with 898 s.

For the compound `O=C(NCCc1csc(-c2cccs2)n1)C1CCN(C(=O)Cc2ccc(F)cc2)CC1`, the RP-LC retention time amounted to 774 s. Then `O=C(Cn1cncc(-c2nc(-c3cccs3)cs2)c1=O)Nc1cccc(Cl)c1`, with 941 s; and `Cc1nc2c(sc3nc(-c4ccccc4)ccc32)c(=O)n1CC(=O)NCc1ccccc1`, with 972 s; and `Cc1cccc(-c2nnc(-c3ccc(Cl)c(S(=O)(=O)N4CCOCC4)c3)o2)c1`, with 1020 s. `COc1ccccc1N1CCN(c2cc(SCC(=O)Nc3ccc(C(C)C)cc3)ncn2)CC1` registered an RP-LC retention time of 1140 s. `Cc1ccc(Cc2c(C)nc3c(C(=O)NCCCN4CCOCC4)cnn3c2C)cc1` registered an RP-LC retention time of 684 s. On to `CCOc1ncccc1C(=O)OCc1cc(-c2ccco2)on1`, for which the RP-LC retention time was 927 s. The compound `CCCn1ccc2sc(C)c(C(=O)NCCOC)c2c1=O` gave an RP-LC retention time of 652 s. `CCCCNC(=O)c1ccc(-c2nc(CCN(C)C(=O)CC)no2)cc1` returned an RP-LC retention time of 740 s. Then `O=C(NCCc1csc(-c2cccs2)n1)C1CCN(S(=O)(=O)c2ccc(F)cc2)CC1`, with 882 s. The same measure for `COCCC(=O)N(C)Cc1cccnc1Oc1ccccc1`: 1060 s. `O=C(O)Cc1sc(Nc2ccc(Br)cc2)nc1-c1ccccc1` returned an RP-LC retention time of 1020 s. The same measure for `CN1c2ccc(Cl)cc2C(=O)NC12CCN(C(=O)Nc1ccc(F)cc1)CC2`: 788 s; for `CCOc1ccccc1NC(=O)N1CCC(n2cnc3ccccc3c2=O)CC1`: 801 s. On to `CCN(CC)c1ccc(Nc2nc(-c3ccc(Cl)cc3)cs2)cc1`, for which the RP-LC retention time was 791 s.

The record behind these values is the METLIN SMRT retention time set (Domingo-Almenara et al. 2019).
